Measurements as given in article PMC7907646, “Identification of a Novel Pattern Recognition Receptor DM9 Domain Containing Protein 4 as a Marker for Pro-Hemocyte of Pacific Oyster Crassostrea gigas” (Frontiers in Immunology, 2021).

Target: T1, CgDM9CP-4 (rCgDM9CP-4) (Magallana gigas, UniProt A0A8W8N023)
T1 construct: full ORF, 145 residues, two tandem DM9 domains, predicted 16 kDa (~18 kDa on gel); pET-30a (NdeI/XhoI), His tag, E. coli Transetta (DE3), Ni column
Experiment: ELISA on mannose-coated plate, one-site fit
Assay type: binding
Conditions: apparent Kd; mannose coated at 20 μg in pH 9.6 buffer; 5 mmol L^-1 CaCl2, 0.1 mg mL^-1 BSA, 37°C; anti-His detection

T1 sequence (A0A8W8N023 entry or part of it): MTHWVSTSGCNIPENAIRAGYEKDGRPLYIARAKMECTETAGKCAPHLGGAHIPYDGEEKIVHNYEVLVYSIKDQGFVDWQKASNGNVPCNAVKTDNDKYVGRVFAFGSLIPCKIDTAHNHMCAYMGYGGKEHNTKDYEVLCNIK

## OC[C@H]1OC(O)[C@@H](O)[C@@H](O)[C@@H]1O (stereo partly shown) [Mannose]
  Kd: 0.09 µM
